Measurements as given in patent US8519155B2, “Choline and tromethamine salt of licofelone” (c-a-i-r biosciences GmbH, priority 2008, dated 2013).
In brackets after ≈: the same amount, converted by molar mass. Structures can show the parent of a compound that is named as a salt.

Legend:
Assay type in all cases: physicochemical
[1] = Storage stability at elevated temperatures (sum of known and unknown impurities)
Description: The raw materials (a) Licofelone, (b) Licofelone choline salt (example 1A) and (c) Licofelone tromethamine salt (example 2) were stored in open containers at 40, 50, 60 and 70° C. as well as at 40° C. with 75% relative humidity. Samples were analyzed after storage periods of 4 and 8 weeks. A validated method was applied for quantification of the five known impurities as well as of unknown impurities.

[2] = Solubility in Fasted State Simulated Intestinal Fluid (FaSSIF); conditions: after 15 min, HPLC; for solubility in 30 ml FaSSIF, conc.: 30 ml FaSSIF pH 6.5, approx. 50 mg (as free acid); for solubility in 100 ml FaSSIF, conc.: 100 ml FaSSIF pH 6.5, approx. 50 mg (as free acid)
Description: FaSSIF was prepared according to the literature (e.g. Marques M, Dissolution Technologies, May 2004). […] The pH value was adjusted to 6.5 using 1 N NaOH. The ready-to-use FaSSIF was prepared by dissolving 3.3 g sodium taurocholate in 500 ml blank FaSSIF. Then, 11.8 ml of a solution of 100 mg/ml lecithin in dichloromethane was added and the thereafter, the solvent dichloromethane was removed under vacuum at 40° C. Thereafter the clear solution was transferred into a graduated 2 l flask and made up to volume with blank FaSSIF.
Solubility studies were performed with Licofelone (free acid), Licofelone tromethamol salt (example 2) and Licofelone choline salt (example 1A). The test articles were placed in a beaker, FaSSIF and a magnetic stirring bar were added and the mixture was stirred using a magnetic stirrer. After 15 min, samples were withdrawn, filtered and the clear filtrate was analyzed by HPLC to determine the concentration of Licofelone.
The dissolution test was performed in 100 ml FaSSIF and 30 ml FaSSIF. The lower volume was selected in order to simulate the physiological ratio between drug and intestinal fluid volume.

[3] = Solubility in 2-pyrrolidone; conditions: 25° C., mixed for 30 min, Licofelone in supernatant by HPLC
Description: Approx. 500 mg Licofelone (free acid) or the corresponding salt (examples 1A and 2) were suspended in 1 ml 2-pyrrolidone and mixed for 30 min. The temperature was maintained at 25° C. After centrifugation the concentration of Licofelone in the supernatant was determined by HPLC with UV detection.

[4] = stored at elevated temperatures for several weeks

Compound | stability on storage [1, 4] | solubility in 30 ml FaSSIF, conc. [2] | solubility in 100 ml FaSSIF, conc. [2] | solubility [3] | stability on storage ([1]; stored at moderately elevated temperatures for several weeks)
CC1(C)Cc2c(-c3ccccc3)c(-c3ccc(Cl)cc3)c(CC(=O)O)n2C1 [Licofelone tromethamine salt, 6-(4-chlorophenyl)-2,2-dimethyl-7-phenyl-2,3-dihydro-1H-pyrrolizin-5-ylacetic acid tromethamine salt] | more stable than the free acid and the choline salt | 149 µg/mL | 165 µg/mL | 66000 µg/mL | 
CC1(C)Cc2c(-c3ccccc3)c(-c3ccc(Cl)cc3)c(CC(=O)O)n2C1 [Licofelone (free acid), 6-(4-chlorophenyl)-2,2-dimethyl-7-phenyl-2,3-dihydro-1H-pyrrolizin-5-ylacetic acid, reference compound] | undergoes degradation | 7 µg/mL (≈ 18.4 µM) | 7 µg/mL (≈ 18.4 µM) | 47000 µg/mL (≈ 124000 µM) | 
CC1(C)Cc2c(-c3ccccc3)c(-c3ccc(Cl)cc3)c(CC(=O)O)n2C1 [Licofelone choline salt, 6-(4-chlorophenyl)-2,2-dimethyl-7-phenyl-2,3-dihydro-1H-pyrrolizin-5-ylacetic acid choline salt] |  | 222 µg/mL | 228 µg/mL | 274000 µg/mL | more stable than the free acid
